According to PMC3125149, “SCYX-7158, an Orally-Active Benzoxaborole for the Treatment of Stage 2 Human African Trypanosomiasis” (PLoS Neglected Tropical Diseases, 2011):

Assay: Stability in plasma or brain homogenate
Type: in vitro ADME
Conditions: incubated with plasma or brain homogenate for 4 h at 37°C
Experimental: Binding to human or mouse plasma proteins or mouse brain homogenate was determined by rapid equilibrium dialysis (RED) (Pierce, Rockford, IL) using a 48-well plate-based format according to the manufacturer's instructions. Briefly, test compound at the required concentrations was added to fresh human or mouse plasma (Bioreclamation, Liverpool, NY) or freshly prepared mouse brain homogenate. Duplicate aliquots of each sample were transferred into the sample chambers of the RED devices, and dialysis buffer (BupH PBS) was added to the buffer chambers. The plates were sealed and incubated at 37°C for 4 h. After dialysis, samples collected from the buffer and tissue chambers were treated with ice-cold methanol (3 volumes for plasma, 4 volumes for brain) to precipitate proteins. The treated samples were centrifuged for 10 min at 3×10^3 g at 15°C. The supernatants were assayed for test compound by LC-MS/MS. Calibration standards and quality control samples were prepared in matched matrix and assayed with samples. Values for unbound and bound fractions and mass balance were calculated. Concordance of binding for each batch of plasma was confirmed by assay of warfarin, imipramine and carbamezapine. […] The stability of each oxaborole in the CNS tissue was evaluated by incubation in fresh rodent brain homogenate. […] Supernatants from the incubation mixtures were analyzed for parent compound by LC-MS/MS.

## CC1(C)OB(O)c2cc(NC(=O)c3ccc(F)cc3C(F)(F)F)ccc21 [SCYX-7158]
  stability: stable
